Measured values published in paper PMC8845043 (ACS Pharmacology & Translational Science, 2022).

Assays:
[1] = biological target: hAChE from freshly collected human erythrocytes (Homo sapiens, UniProt P22303); experiment: Ex vivo anticholinesterase activity; type: biochemical
[2] = human plasma, following a Posiphen 40 mg dose; cited from earlier work
[3] = biological target: hBChE from freshly collected human plasma (Homo sapiens, UniProt P06276); experiment: Ex vivo anticholinesterase activity; type: biochemical
Chain of hBChE from freshly collected human plasma (P06276 29-602): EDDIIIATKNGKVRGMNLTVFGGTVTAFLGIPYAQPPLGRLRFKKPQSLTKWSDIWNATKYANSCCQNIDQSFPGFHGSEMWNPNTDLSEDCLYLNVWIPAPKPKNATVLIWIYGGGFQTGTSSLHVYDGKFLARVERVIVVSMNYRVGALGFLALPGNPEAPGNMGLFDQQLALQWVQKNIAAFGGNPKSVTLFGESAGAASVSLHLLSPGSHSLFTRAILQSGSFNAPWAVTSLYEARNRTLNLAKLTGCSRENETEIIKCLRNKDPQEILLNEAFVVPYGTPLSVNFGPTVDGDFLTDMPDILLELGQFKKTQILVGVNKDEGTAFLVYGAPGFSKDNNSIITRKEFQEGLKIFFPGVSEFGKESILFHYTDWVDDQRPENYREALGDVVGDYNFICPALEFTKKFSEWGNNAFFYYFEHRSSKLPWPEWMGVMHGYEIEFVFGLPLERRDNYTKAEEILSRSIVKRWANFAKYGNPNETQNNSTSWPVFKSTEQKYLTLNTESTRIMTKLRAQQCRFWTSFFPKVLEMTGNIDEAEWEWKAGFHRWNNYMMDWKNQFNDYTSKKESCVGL

Chain of hAChE from freshly collected human erythrocytes (P22303 32-617 isoform P22303-2 limits assumed): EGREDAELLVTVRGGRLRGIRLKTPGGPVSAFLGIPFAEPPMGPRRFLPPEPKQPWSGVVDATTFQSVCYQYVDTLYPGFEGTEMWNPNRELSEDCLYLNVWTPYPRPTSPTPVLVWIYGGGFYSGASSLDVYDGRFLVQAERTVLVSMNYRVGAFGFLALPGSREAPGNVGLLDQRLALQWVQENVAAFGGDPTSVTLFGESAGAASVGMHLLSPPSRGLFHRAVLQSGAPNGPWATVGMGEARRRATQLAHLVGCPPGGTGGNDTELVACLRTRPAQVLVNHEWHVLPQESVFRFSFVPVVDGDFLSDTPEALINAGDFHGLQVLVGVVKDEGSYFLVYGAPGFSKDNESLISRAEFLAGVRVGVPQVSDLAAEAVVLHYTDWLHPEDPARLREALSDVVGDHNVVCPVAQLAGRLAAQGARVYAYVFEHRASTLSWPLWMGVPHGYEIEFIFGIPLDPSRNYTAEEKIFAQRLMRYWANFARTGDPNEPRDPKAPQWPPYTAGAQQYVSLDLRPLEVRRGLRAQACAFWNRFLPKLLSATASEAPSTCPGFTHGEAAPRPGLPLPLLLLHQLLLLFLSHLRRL

| SMILES | IC50 [1] | AChE inhibitory action (in words) ([1]; wet lab evaluation, human AChE) | plasma concentration CMax [2] | IC50 [3] |
| --- | --- | --- | --- | --- |
| CN1CC[C@]2(C)c3cc(OC(=O)Nc4ccccc4)ccc3N(C)[C@H]12 [Posiphen] | > 10 µM | lacks AChE inhibitory action | 118.5 ng/mL | > 10 µM |
| CN1CC[C@@]2(C)c3cc(OC(=O)Nc4ccccc4)ccc3N(C)[C@@H]12 [Phenserine, reference compound] |  |  |  | 1.38 ± 0.24 µM |
